Data from PubChem BioAssay AID1259407 (Chemical Carcinogenesis Research Information System (CCRIS), 2018).
Activity calls are given as the source filed them. The rule behind the calls is not given here.

System: CCRIS mutagenicity, Ames/micronucleus/aberration tests
Assay: CCRIS mutagenicity studies

CC(O)CN(C)N=O (centres undefined)
mutagenic call (Test System: AMES SALMONELLA TYPHIMURIUM, Strain/Indicator: TA100, Metabolic Activation: HAMSTER, LIVER, S-9, 3-METHYLCHOLANTHRENE, Method: PREINCUBATION): active; positive
mutagenic call (Test System: AMES SALMONELLA TYPHIMURIUM, Strain/Indicator: TA100, Metabolic Activation: HAMSTER, LIVER, S-9, PHENOBARBITAL, Method: PREINCUBATION): active; positive
mutagenic call (Test System: AMES SALMONELLA TYPHIMURIUM, Strain/Indicator: TA100, Metabolic Activation: HAMSTER, LIVER, S-9, Method: PREINCUBATION): active; positive
mutagenic call (Test System: AMES SALMONELLA TYPHIMURIUM, Strain/Indicator: TA100, Metabolic Activation: HUMAN, LIVER, S-9, Method: PREINCUBATION): active; positive
mutagenic call (Test System: AMES SALMONELLA TYPHIMURIUM, Strain/Indicator: TA100, Metabolic Activation: MONKEY, LIVER, S-9, Method: PREINCUBATION): active; positive
mutagenic call (Test System: AMES SALMONELLA TYPHIMURIUM, Strain/Indicator: TA100, Metabolic Activation: MOUSE, LIVER, S-9, 3-METHYLCHOLANTHRENE, Method: PREINCUBATION): active; positive
mutagenic call (Test System: AMES SALMONELLA TYPHIMURIUM, Strain/Indicator: TA100, Metabolic Activation: MOUSE, LIVER, S-9, PHENOBARBITAL, Method: PREINCUBATION): active; positive
mutagenic call (Test System: AMES SALMONELLA TYPHIMURIUM, Strain/Indicator: TA100, Metabolic Activation: MOUSE, LIVER, S-9, Method: PREINCUBATION): active; positive
mutagenic call (Test System: AMES SALMONELLA TYPHIMURIUM, Strain/Indicator: TA100, Metabolic Activation: NONE, Method: PREINCUBATION): inactive; negative
mutagenic call (Test System: AMES SALMONELLA TYPHIMURIUM, Strain/Indicator: TA100, Metabolic Activation: RABBIT, LIVER, S-9, Method: PREINCUBATION): active; positive
mutagenic call (Test System: AMES SALMONELLA TYPHIMURIUM, Strain/Indicator: TA100, Metabolic Activation: RAT, LIVER, CYTOSOL, PCB, Method: PREINCUBATION): inactive; negative
mutagenic call (Test System: AMES SALMONELLA TYPHIMURIUM, Strain/Indicator: TA100, Metabolic Activation: RAT, LIVER, MICROSOMES AND CYTOSOL, PCB, Method: PREINCUBATION): active; positive
mutagenic call (Test System: AMES SALMONELLA TYPHIMURIUM, Strain/Indicator: TA100, Metabolic Activation: RAT, LIVER, MICROSOMES AND G6PDH, PCB, Method: PREINCUBATION): active; positive
mutagenic call (Test System: AMES SALMONELLA TYPHIMURIUM, Strain/Indicator: TA100, Metabolic Activation: RAT, LIVER, MICROSOMES, PCB, Method: PREINCUBATION): active; positive
mutagenic call (Test System: AMES SALMONELLA TYPHIMURIUM, Strain/Indicator: TA100, Metabolic Activation: RAT, LIVER, S-9 (HEATED), PCB, Method: PREINCUBATION): inactive; negative
mutagenic call (Test System: AMES SALMONELLA TYPHIMURIUM, Strain/Indicator: TA100, Metabolic Activation: RAT, LIVER, S-9, 3-METHYLCHOLANTHRENE, Method: PREINCUBATION): active; positive
mutagenic call (Test System: AMES SALMONELLA TYPHIMURIUM, Strain/Indicator: TA100, Metabolic Activation: RAT, LIVER, S-9, PCB, Method: PREINCUBATION): active; positive
mutagenic call (Test System: AMES SALMONELLA TYPHIMURIUM, Strain/Indicator: TA100, Metabolic Activation: RAT, LIVER, S-9, PHENOBARBITAL, Method: PREINCUBATION): active; positive
mutagenic call (Test System: AMES SALMONELLA TYPHIMURIUM, Strain/Indicator: TA100, Metabolic Activation: RAT, LIVER, S-9, Method: PREINCUBATION): active; positive
mutagenic call (Test System: AMES SALMONELLA TYPHIMURIUM, Strain/Indicator: TA100, Metabolic Activation: RAT, LIVER, S-9 WITHOUT NADP+, PCB, Method: PREINCUBATION): inactive; negative
mutagenic call (Test System: AMES SALMONELLA TYPHIMURIUM, Strain/Indicator: TA100, Metabolic Activation: TOBACCO CELLS, Method: PREINCUBATION): inactive; negative
mutagenic call (Test System: AMES SALMONELLA TYPHIMURIUM, Strain/Indicator: TA100, Method: PREINCUBATION): active; positive
mutagenic call (Test System: CHINESE HAMSTER V-79, Strain/Indicator: V-79/OUABAIN, Metabolic Activation: HAMSTER, HEPATOCYTES, Method: CELL-MEDIATED): active; positive

CC1(C)C(C=C(Cl)Cl)C1C(=O)OC(C#N)c1ccc(F)c(Oc2ccccc2)c1 (centres undefined)
mutagenic call (End Point: In vitro chromosomal aberrations, Test System: Human lymphocytes, Metabolic Activation: Male Sprague-Dawley rat, liver, S-9, Aroclor 1254): inactive; negative
mutagenic call (End Point: In vitro chromosomal aberrations, Test System: Human lymphocytes, Metabolic Activation: None): inactive; negative
mutagenic call (End Point: In vitro chromosomal aberrations, Test System: Human lymphocytes, Metabolic Activation: S-9 (No details given by DPR evaluator)): inactive; negative
mutagenic call (End Point: In vivo micronucleus, Test System: Bone marrow erythrocytes, Strain/Indicator: Bor:NMRI (SPF Han)/ Female, Species: Mouse, Route: Oral): inactive; negative (no significant effect on frequency of micronucleated polychromatic ery
mutagenic call (End Point: In vivo micronucleus, Test System: Bone marrow erythrocytes, Strain/Indicator: Bor:NMRI (SPF Han)/ Male, Species: Mouse, Route: Oral): inactive; negative (no significant effect on frequency of micronucleated polychromatic ery
mutagenic call (Test System: Ames Salmonella typhimurium, Strain/Indicator: TA98, Metabolic Activation: None, Method: Plate incorporation): inactive; negative
mutagenic call (Test System: Ames Salmonella typhimurium, Strain/Indicator: TA98, Metabolic Activation: S-9 (Additional details not given by DPR evaluator), Method: Plate incorporation): inactive; negative
mutagenic call (Test System: Ames Salmonella typhimurium, Strain/Indicator: TA100, Metabolic Activation: None, Method: Plate incorporation): inactive; negative
mutagenic call (Test System: Ames Salmonella typhimurium, Strain/Indicator: TA100, Metabolic Activation: S-9 (Additional details not given by DPR evaluator), Method: Plate incorporation): inactive; negative
mutagenic call (Test System: Ames Salmonella typhimurium, Strain/Indicator: TA1535, Metabolic Activation: None, Method: Plate incorporation): inactive; negative
mutagenic call (Test System: Ames Salmonella typhimurium, Strain/Indicator: TA1535, Metabolic Activation: S-9 (Additional details not given by DPR evaluator), Method: Plate incorporation): inactive; negative
mutagenic call (Test System: Ames Salmonella typhimurium, Strain/Indicator: TA1537, Metabolic Activation: None, Method: Plate incorporation): inactive; negative
mutagenic call (Test System: Ames Salmonella typhimurium, Strain/Indicator: TA1537, Metabolic Activation: S-9 (Additional details not given by DPR evaluator), Method: Plate incorporation): inactive; negative
mutagenic call (Test System: CHO-HGPRT, Strain/Indicator: CHO-Ki-BH4 cells, Metabolic Activation: None, Method: Forward mutation assay): inactive; negative
mutagenic call (Test System: CHO-HGPRT, Strain/Indicator: CHO-Ki-BH4 cells, Metabolic Activation: S-9 (No additional details presented by DPR evaluator), Method: Forward mutation assay): inactive; negative
mutagenic call (Test System: UDS Rat hepatocytes, Strain/Indicator: Thymidine incorporation, Metabolic Activation: None, Method: Autoradiography): inactive; negative

CCOC(=O)C(C)(C)Oc1ccc(Cl)cc1
mutagenic call (End Point: In vitro micronucleus, Test System: Mouse lymphoma L5178Y cells, Metabolic Activation: None): active; positive
mutagenic call (Test System: AMES SALMONELLA TYPHIMURIUM, Strain/Indicator: TA100(FR1), Metabolic Activation: NONE, Method: STANDARD PLATE): inactive; negative
mutagenic call (Test System: AMES SALMONELLA TYPHIMURIUM, Strain/Indicator: TA100(FR1), Metabolic Activation: RAT, LIVER, S-9, PHENOBARBITAL AND 3-METHYLCHOLANTHRENE, Method: STANDARD PLATE): inactive; negative
mutagenic call (Test System: AMES SALMONELLA TYPHIMURIUM, Strain/Indicator: TA100, Metabolic Activation: NONE, Method: STANDARD PLATE): inactive; negative
mutagenic call (Test System: AMES SALMONELLA TYPHIMURIUM, Strain/Indicator: TA100, Metabolic Activation: RAT, LIVER, S-9, PHENOBARBITAL AND 3-METHYLCHOLANTHRENE, Method: STANDARD PLATE): inactive; negative
mutagenic call (Test System: AMES SALMONELLA TYPHIMURIUM, Strain/Indicator: TA102, Metabolic Activation: RAT LIVER S-9, PHENOBARBITAL AND 5,6-BENZOFLAVONE, Method: STANDARD PLATE): inactive; negative
mutagenic call (Test System: AMES SALMONELLA TYPHIMURIUM, Strain/Indicator: TA2638, Metabolic Activation: RAT LIVER S-9, PHENOBARBITAL AND 5,6-BENZOFLAVONE, Method: STANDARD PLATE): inactive; negative
mutagenic call (Test System: CHINESE HAMSTER V-79, Strain/Indicator: V-79/6-THIOGUANINE, Metabolic Activation: NONE): inactive; negative
mutagenic call (Test System: CHINESE HAMSTER V-79, Strain/Indicator: V-79/6-THIOGUANINE, Metabolic Activation: RAT, LIVER, HEPATOCYTES): inactive; negative
mutagenic call (Test System: CHINESE HAMSTER V-79, Strain/Indicator: V-79/OUABAIN, Metabolic Activation: NONE): inactive; negative
mutagenic call (Test System: CHINESE HAMSTER V-79, Strain/Indicator: V-79/OUABAIN, Metabolic Activation: RAT, LIVER, HEPATOCYTES): inactive; negative
mutagenic call (Test System: E. COLI, Strain/Indicator: WP2 (PKM101), Metabolic Activation: RAT LIVER S-9, PHENOBARBITAL AND 5,6-BENZOFLAVONE, Method: STANDARD PLATE): inactive; negative
mutagenic call (Test System: E. COLI, Strain/Indicator: WP2 UVRA (PKM101), Metabolic Activation: RAT LIVER S-9, PHENOBARBITAL AND 5,6-BENZOFLAVONE, Method: STANDARD PLATE): inactive; negative
mutagenic call (Test System: Mouse lymphoma, Strain/Indicator: L5178Y (tk+/tk-)/Trifluorothymidine, Metabolic Activation: None, Method: Microtiter): inactive; negative

CC(=O)O/C=C/Cc1ccc2c(c1)OCO2
mutagenic call (Test System: UDS HUMAN FIBROBLASTS, Strain/Indicator: THY INCORP (NON-S-PHASE), Metabolic Activation: NONE, Method: AUTORADIOGRAPHY): active; positive
